Assay results: PubChem BioAssay (NCI)
Values joined by “and” are separate entries in the source; they are usually repeats but may differ in a detail not shown here. Equal values may be shown once.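 Each compound was tested at five concentrations against cells in 96-well plates for 48 hours. Here, GI50 denotes the concentration required for 50% inhibition of growth. At the TGI there is no net growth.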

Experiments:
Assay in all cases: inhibition of tumour cell growth, NCI panel, 48 h
A498 renal = tested on: A498 renal
HCC-2998 colon = tested on: HCC-2998 colon
HL-60(TB) leukemia = tested on: HL-60(TB) leukemia
LOX IMVI melanoma = tested on: LOX IMVI melanoma
NCI-H460 lung = tested on: NCI-H460 lung
NCI-H522 lung = tested on: NCI-H522 lung
SF-268 CNS = tested on: SF-268 CNS
SK-MEL-2 melanoma = tested on: SK-MEL-2 melanoma
SK-MEL-28 melanoma = tested on: SK-MEL-28 melanoma
SK-OV-3 ovarian = tested on: SK-OV-3 ovarian

SMILES | TGI (A498 renal) [µM] | TGI (HCC-2998 colon) | TGI (HL-60(TB) leukemia) | TGI (LOX IMVI melanoma) | TGI (NCI-H460 lung) | TGI (NCI-H522 lung) | TGI (SF-268 CNS) | TGI (SK-MEL-2 melanoma) [µM] | TGI (SK-MEL-28 melanoma) | TGI (SK-OV-3 ovarian) [µM] | GI50 (A498 renal) [µM] | GI50 (HL-60(TB) leukemia) [µM] | GI50 (NCI-H460 lung) [µM] | GI50 (NCI-H522 lung) [µM] | GI50 (SF-268 CNS) [µM] | GI50 (SK-OV-3 ovarian) [µM] | GI50 (HCC-2998 colon) [µM] | GI50 (LOX IMVI melanoma) [µM] | GI50 (SK-MEL-2 melanoma) [µM] | GI50 (SK-MEL-28 melanoma) [µM]
CCC12C=CCN3CCC4(C(=C(C(=O)OC)C1)Nc1ccccc14)[C@H]32 (some centres not stated) | 79.4 | > 100 µM | 88.7 µM | 53.4 µM | 41.9 µM | 49.4 µM | 45.4 µM | 52 | > 100 µM | 49.7 | – | – | – | – | – | – | – | – | – | –
CCC(=O)OCN1C(=O)C=CC1=O | > 100 | 34.1 µM and 33.6 µM | 70.4 µM and 8.36 µM | 34.3 µM and 35.1 µM | 44.2 µM and 33.7 µM | 4.64 µM and 4.58 µM | 36.9 µM and 41.3 µM | 29.3 | 33.3 µM and 33.4 µM | > 100 | > 100 | 17.3 | 21.3 | 2.27 | 19.1 | > 100 | – | – | – | –
CN1C(=O)C(C)(C)Oc2c(-c3cn(C)c(=O)c4[nH]ccc34)cc(S(C)(=O)=O)cc21 | 5.98 | 2.86 µM | 0.847 µM | 1.73 µM | > 100 µM | 5 µM | > 100 µM | > 100 | > 100 µM | 7.04 | 1.11 | 0.281 | 2.29 | 0.383 | 3.99 | 0.705 | 1.24 | 0.462 | 1.95 | 3.92
COc1cc2c3c(n(CCCN4CCN(CCO)CC4)c(=O)c2cc1OC)-c1cc2c(cc1C3=O)OCO2 | 81.6 | 20.4 µM | > 41.7 µM | 8.77 µM | 18.4 µM | > 51.2 µM | > 100 µM | > 100 | 32.1 µM | > 78.9 | 18.2 | 6.35 | 0.972 | > 33 | 5.23 | 21.1 | 6.25 | 3.72 | > 100 | 17.5
CC(=O)Nc1ccccc1S(=O)c1ccccc1 (configuration not stated) | > 100 | > 100 µM | > 100 µM | > 100 µM | > 100 µM | > 100 µM | > 100 µM | > 100 | > 100 µM | > 100 | – | – | – | – | – | – | – | – | – | –
COc1ccc(CNC(=O)c2c(C)n([O-])c3cc(F)c(F)cc3[n+]2=O)cc1 | 29.6 | 5.77 µM | 12.2 µM | 17.5 µM | 25.9 µM | 27 µM | 15.7 µM | 29.5 | 23.6 µM | 27.9 | 16.1 | 2.64 | 13.1 | 11.5 | 4.4 | 14.8 | 2.07 | 5.22 | 15.4 | 11.5
COc1ccc(OC)c(/C=C/C(=O)c2ccc3cc(OC)ccc3c2)c1 | > 31.9 | 2.44 µM | > 39.4 µM | > 50 µM | > 50 µM | > 14 µM | > 50 µM | > 50 | > 50 µM | 2.37 | 12.2 | 4.93 | 10.3 | – | > 14.3 | 1.04 | 0.795 | 48 | > 14.9 | 3.74
ClCCCN1CCCCC1CCl (configuration not stated) | > 100 | > 100 µM | > 100 µM | > 100 µM | > 100 µM | > 100 µM | > 100 µM | > 100 | > 100 µM | > 100 | – | – | – | – | – | – | – | – | – | –
COc1ccc(-c2cc(=O)c3cccnc3[nH]2)cc1 | > 100 | > 100 µM | 57.1 µM | > 100 µM | 91.4 µM | > 100 µM | > 100 µM | > 100 | > 100 µM | > 100 | – | 13 | 26.4 | – | – | – | – | – | – | –
COC(=O)CCc1c(/C=C2\N=C(c3ccc[nH]3)C=C2OC)[nH]c(C)c1C(=O)OCc1ccccc1 | 3.37 | 6.04 µM | 2.42 µM | 0.418 µM | > 61.9 µM | 2.88 µM | 8.23 µM | 1.24 | 2.3 µM | 12.6 | 0.289 | 0.446 | 0.958 | 0.653 | 0.514 | 1.67 | 0.404 | 0.169 | 0.304 | 0.503
N#CCCn1c(CCC(=O)Nc2ccc(Cl)cc2Cl)n[nH]c1=S | > 100 | > 100 µM | > 100 µM | > 100 µM | > 100 µM | > 100 µM | > 100 µM | > 100 | > 100 µM | > 100 | – | – | – | – | – | – | – | – | – | –
CC1=C(C(=O)NCc2ccccc2)C(c2ccccc2O)C(C(=O)NCc2ccccc2)=C(C)N1 | 33.9 | 35.9 µM | 62.2 µM | 30.1 µM | 39.2 µM | 31.4 µM | 55.3 µM | 32.6 | 35.8 µM | 64.9 | – | – | – | – | – | – | – | – | – | –
CNCC1CCn2c(c(C3=C(c4cn(C)c5ccccc45)C(=O)NC3=O)c3ccccc32)C1 (configuration not stated) | 14.5 | 7.77 µM | 8.61 µM | 7.4 µM | 6.55 µM | 6.49 µM | 8.97 µM | 7.07 | 7.28 µM | 16.4 | 5.65 | 3.7 | 2.91 | 3.09 | 4.17 | 5.18 | 3.76 | 3.84 | 3.33 | 3.78
CCCCCCC(=O)CC(=O)C(=O)Nc1ccccc1C | > 100 | > 100 µM | > 100 µM | > 59 µM | > 81.2 µM | > 100 µM | > 100 µM | > 100 | > 100 µM | > 100 | – | – | – | – | – | – | – | – | – | –
